# ChEMBL document CHEMBL1138414, “Discovery of galectin ligands in fully randomized combinatorial one-bead-one-compound (glyco)peptide libraries” (2007)
# Calls of active or inactive are those of the source. No cut-off for these calls is given here. Non-standard residues stand in square brackets, D forms with d. Residues, ends and D or L forms follow the SMILES beside them. *: point of attachment. X1 = OC[C@H]1O[C@@H](O[C@H]2[C@H](O)[C@@H](O)[C@@H](*)O[C@@H]2CO)[C@H](O)[C@@H](O)[C@H]1O; βGal = OC[C@H]1O[C@@H](*)[C@H](O)[C@@H](O)[C@H]1O; X2 = OC[C@H]1O[C@@H](N*)[C@H](O)[C@@H](O)[C@H]1O; Cha = N[C@@H](CC1CCCCC1)C(=O)O
# Assays:
# [1] = molecular target: Galectin-1 (Homo sapiens) (UniProt P09382); assay: Inhibition of carbohydrate-dependent human galectin1 binding at 10 mM by solid phase assay
# [2] = test system: CAPAN-1; assay: Inhibition of carbohydrate-dependent galectin1 binding to human Capan1 cell surface at 2mM; assay type: functional; set-up: scale not given: the % may be the effect or the level left
# [3] = molecular target: Galectin-3 (Homo sapiens) (UniProt P17931); assay: Inhibition of carbohydrate-dependent human galectin3 binding at 10 mM by solid phase assay
# [4] = test system: SW480; assay: Inhibition of carbohydrate-dependent galectin3 binding to human SW480 cell surface at 1mM; assay type: functional; set-up: scale not given: the % may be the effect or the level left
# [5] = test system: SW480; assay: Inhibition of carbohydrate-dependent galectin3 binding to human SW480 cell surface at 5 mM; assay type: functional, cell-based; set-up: scale not given: the % may be the effect or the level left
# [6] = test system: SW480; assay: Inhibition of carbohydrate-dependent galectin3 binding to human SW480 cell surface at 2mM; assay type: functional, cell-based; set-up: scale not given: the % may be the effect or the level left
# [7] = test system: SW480; assay: Inhibition of carbohydrate-dependent galectin3 binding to human SW480 cell surface at 0.5mM; assay type: functional, cell-based; set-up: scale not given: the % may be the effect or the level left
# Chain of Galectin-1 (Homo sapiens) (P09382 whole entry): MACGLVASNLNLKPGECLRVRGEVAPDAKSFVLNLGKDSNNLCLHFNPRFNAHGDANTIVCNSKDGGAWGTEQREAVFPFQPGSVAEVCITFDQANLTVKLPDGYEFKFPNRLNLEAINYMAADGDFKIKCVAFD
# Chain of Galectin-3 (Homo sapiens) (P17931 whole entry): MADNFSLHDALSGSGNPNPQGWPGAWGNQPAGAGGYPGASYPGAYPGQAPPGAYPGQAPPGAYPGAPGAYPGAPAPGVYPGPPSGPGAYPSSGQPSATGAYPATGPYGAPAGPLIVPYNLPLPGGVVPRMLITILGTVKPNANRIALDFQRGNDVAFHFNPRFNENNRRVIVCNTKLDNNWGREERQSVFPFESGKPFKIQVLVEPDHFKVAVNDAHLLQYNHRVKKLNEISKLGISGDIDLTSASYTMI
Molecule,inhibition [1],inhibition [3],other results
CSCC[C@H](NC(=O)[C@@H](N)[C@@H](C)O[C@H]1O[C@H](CO)[C@@H](O[C@@H]2O[C@H](CO)[C@H](O)[C@H](O)[C@H]2O)[C@H](O)[C@H]1O)C(=O)N[C@@H](CCCNC(=N)N)C(=O)N[C@@H](C)C(=O)N[C@H](C(=O)N[C@@H](CC1CCCCC1)C(=O)O)[C@@H](C)O[C@H]1O[C@H](CO)[C@@H](O[C@@H]2O[C@H](CO)[C@H](O)[C@H](O)[C@H]2O)[C@H](O)[C@H]1O,38%,,Activity [2]: 22%
CC[C@H](C)[C@H](NC(=O)[C@H](Cc1ccccc1)NC(=O)[C@@H]1CCCN1)C(=O)N[C@@H](CC1CCCCC1)C(=O)N[C@@H](Cc1ccccc1)C(=O)N[C@@H](CCC(N)=O)C(=O)O,14%,,
CSCC[C@H](N)C(=O)N[C@@H](CCCNC(=N)N)C(=O)N[C@H](C(=O)N[C@@H](CCCNC(=N)N)C(=O)N[C@H](C(=O)N[C@@H](CCCNC(=N)N)C(=O)O)[C@@H](C)O[C@H]1O[C@H](CO)[C@@H](O[C@@H]2O[C@H](CO)[C@H](O)[C@H](O)[C@H]2O)[C@H](O)[C@H]1O)[C@@H](C)O[C@H]1O[C@H](CO)[C@@H](O[C@@H]2O[C@H](CO)[C@H](O)[C@H](O)[C@H]2O)[C@H](O)[C@H]1O,,inactive,
C[C@@H](O)[C@H](NC(=O)[C@H](Cc1ccc(O)cc1)NC(=O)[C@H](CC1CCCCC1)NC(=O)[C@H](Cc1cnc[nH]1)NC(=O)[C@H](CC1CCCCC1)NC(=O)[C@@H](N)Cc1ccc(O)cc1)C(=O)O,9%,,
C[C@H](NC(=O)[C@@H](N)[C@@H](C)O[C@H]1O[C@H](CO)[C@@H](O[C@@H]2O[C@H](CO)[C@H](O)[C@H](O)[C@H]2O)[C@H](O)[C@H]1O)C(=O)N[C@@H](CC(N)=O)C(=O)N[C@@H](Cc1ccc(O)cc1)C(=O)N[C@H](C(=O)N[C@@H](CCCNC(=N)N)C(=O)O)[C@@H](C)O[C@H]1O[C@H](CO)[C@@H](O[C@@H]2O[C@H](CO)[C@H](O)[C@H](O)[C@H]2O)[C@H](O)[C@H]1O,,15%,
OC[C@H]1O[C@@H](O)[C@H](O)[C@@H](O)[C@H]1O,17%,inactive,
CC[C@H](C)[C@H](NC(=O)[C@@H](NC(=O)[C@H](CCCNC(=N)N)NC(=O)[C@H](CCCNC(=N)N)NC(=O)[C@H](Cc1ccc(O)cc1)NC(=O)[C@H](C)N)[C@@H](C)O[C@H]1O[C@H](CO)[C@@H](O[C@@H]2O[C@H](CO)[C@H](O)[C@H](O)[C@H]2O)[C@H](O)[C@H]1O)C(=O)O (H-AYRRT(X1)I-OH),inactive,,
CC[C@H](C)[C@H](NC(=O)[C@@H](NC(=O)[C@H](CCCNC(=N)N)NC(=O)[C@@H]1CCCN1C(=O)[C@H](CCCNC(=N)N)NC(=O)[C@@H](N)Cc1ccccc1)[C@@H](C)O[C@H]1O[C@H](CO)[C@@H](O[C@@H]2O[C@H](CO)[C@H](O)[C@H](O)[C@H]2O)[C@H](O)[C@H]1O)C(=O)O (H-FRPRT(X1)I-OH),3%,,Activity [2]: 12%
CC[C@H](C)[C@H](NC(=O)[C@H](Cc1ccccc1)NC(=O)[C@@H](NC(=O)CN)C(C)C)C(=O)N[C@@H](CC1CCCCC1)C(=O)N[C@@H](C)C(=O)O (H-GVFI[Cha]A-OH),inactive,,
CC(C)[C@H](NC(=O)[C@H](Cc1cnc[nH]1)NC(=O)[C@@H](N)Cc1cnc[nH]1)C(=O)N[C@@H](Cc1ccc(O)cc1)C(=O)N[C@@H](Cc1ccc(O)cc1)C(=O)N[C@@H](Cc1cnc[nH]1)C(=O)O (H-HHVYYH-OH),,inactive,
CC[C@H](C)[C@H](N)C(=O)N[C@@H](Cc1ccccc1)C(=O)N[C@@H](CCCNC(=N)N)C(=O)N[C@@H](CC1CCCCC1)C(=O)N[C@@H](CCCNC(=N)N)C(=O)N[C@@H](Cc1ccc(O)cc1)C(=O)O (H-IFR[Cha]RY-OH),70%,,
CSCC[C@H](N)C(=O)N[C@@H](Cc1ccccc1)C(=O)N[C@H](C(=O)N[C@@H](CC1CCCCC1)C(=O)N[C@@H](CC1CCCCC1)C(=O)N[C@@H](CCCNC(=N)N)C(=O)O)C(C)C (H-MFV[Cha][Cha]R-OH),22%,,
CC[C@H](C)[C@H](NC(=O)[C@H](CCCNC(=N)N)NC(=O)[C@@H](NC(=O)[C@H](Cc1ccccc1)NC(=O)[C@@H](NC(=O)[C@@H](N)CC(N)=O)[C@@H](C)O[C@H]1O[C@H](CO)[C@@H](O[C@@H]2O[C@H](CO)[C@H](O)[C@H](O)[C@H]2O)[C@H](O)[C@H]1O)C(C)C)C(=O)O (H-NT(X1)FVRI-OH),,44%,Activity [4]: 40%
O=C(O)[C@H](Cc1ccccc1)NC(=O)[C@H](Cc1ccccc1)NC(=O)[C@H](Cc1ccccc1)NC(=O)[C@H](Cc1ccccc1)NC(=O)[C@H](Cc1ccccc1)NC(=O)[C@@H]1CCCN1 (H-PFFFFF-OH),,76%,
CC[C@H](C)[C@H](NC(=O)[C@H](Cc1ccccc1)NC(=O)[C@H](Cc1ccccc1)NC(=O)[C@@H]1CCCN1)C(=O)N[C@@H](CO)C(=O)N[C@@H](CCCNC(=N)N)C(=O)O (H-PFFISR-OH),9%,,Activity [4]: 63%
CC[C@H](C)[C@H](NC(=O)[C@@H]1CCCN1)C(=O)N[C@@H](Cc1ccccc1)C(=O)N[C@H](C(=O)N[C@@H](CCCNC(=N)N)C(=O)N[C@@H](CCCNC(=N)N)C(=O)O)[C@@H](C)O[C@H]1O[C@H](CO)[C@@H](O[C@@H]2O[C@H](CO)[C@H](O)[C@H](O)[C@H]2O)[C@H](O)[C@H]1O (H-PIFT(X1)RR-OH),inactive,,
CC(C)[C@H](NC(=O)[C@@H](NC(=O)[C@@H]1CCCN1)[C@@H](C)O[C@H]1O[C@H](CO)[C@@H](O[C@@H]2O[C@H](CO)[C@H](O)[C@H](O)[C@H]2O)[C@H](O)[C@H]1O)C(=O)N[C@@H](C)C(=O)N1CCC[C@H]1C(=O)N[C@@H](CCCNC(=N)N)C(=O)O (H-PT(X1)VAPR-OH),,inactive,
CC[C@H](C)[C@H](NC(=O)[C@@H](NC(=O)[C@@H]1CCCN1)[C@@H](C)O)C(=O)N[C@@H](Cc1ccccc1)C(=O)N[C@@H](Cc1ccccc1)C(=O)N[C@@H](Cc1ccccc1)C(=O)O (H-PTIFFF-OH),inactive,,
CC(C)[C@H](NC(=O)[C@H](CC1CCCCC1)NC(=O)[C@H](CC(N)=O)NC(=O)[C@H](CC1CCCCC1)NC(=O)[C@@H]1CCCN1)C(=O)N[C@@H](Cc1ccc(O)cc1)C(=O)O (H-P[Cha]N[Cha]VY-OH),67%,,
CC(C)[C@H](NC(=O)[C@@H](N)CCCNC(=N)N)C(=O)N[C@@H](Cc1cnc[nH]1)C(=O)N[C@@H](Cc1ccc(O)cc1)C(=O)N[C@H](C(=O)N[C@@H](CCCNC(=N)N)C(=O)O)[C@@H](C)O[C@H]1O[C@H](CO)[C@@H](O[C@@H]2O[C@H](CO)[C@H](O)[C@H](O)[C@H]2O)[C@H](O)[C@H]1O (H-RVHYT(X1)R-OH),,inactive,Activity [4]: 35%
C[C@H](NC(=O)[C@@H](N)CO)C(=O)N[C@@H](CO)C(=O)N[C@@H](CO)C(=O)N[C@H](C(=O)N[C@@H](CCCNC(=N)N)C(=O)O)[C@@H](C)O[C@H]1O[C@H](CO)[C@@H](O[C@@H]2O[C@H](CO)[C@H](O)[C@H](O)[C@H]2O)[C@H](O)[C@H]1O (H-SASST(X1)R-OH),22%,,
CC[C@H](C)[C@H](NC(=O)[C@H](Cc1ccccc1)NC(=O)[C@H](CCCNC(=N)N)NC(=O)[C@H](CCCNC(=N)N)NC(=O)[C@H](CC1CCCCC1)NC(=O)[C@@H](N)[C@@H](C)O[C@H]1O[C@H](CO)[C@@H](O[C@@H]2O[C@H](CO)[C@H](O)[C@H](O)[C@H]2O)[C@H](O)[C@H]1O)C(=O)O (H-T(X1)[Cha]RRFI-OH),inactive,,Activity [4]: 34%
CC[C@H](C)[C@H](NC(=O)[C@@H](N)[C@@H](C)O[C@@H]1O[C@H](CO)[C@H](O)[C@H](O)[C@H]1O)C(=O)N[C@H](C(=O)N[C@@H](CCC(N)=O)C(=O)N[C@@H](CC1CCCCC1)C(=O)N[C@@H](Cc1ccc(O)cc1)C(=O)O)[C@@H](C)CC (H-T(βGal)IIQ[Cha]Y-OH),inactive,,Activity [4]: 77%
CC[C@H](C)[C@H](NC(=O)[C@@H](NC(=O)[C@@H](N)CC1CCCCC1)C(C)C)C(=O)N[C@@H](CC(=O)N[C@@H]1O[C@H](CO)[C@H](O)[C@H](O)[C@H]1O)C(=O)N[C@@H](Cc1ccc(O)cc1)C(=O)N[C@@H](CCC(N)=O)C(=O)O (H-[Cha]VID(X2)YQ-OH),inactive,,
CSCC[C@H](NC(=O)[C@@H]1CCCN1C(=O)[C@H](CCCNC(=N)N)NC(=O)[C@H](CC1CCCCC1)NC(=O)[C@@H](N)CC1CCCCC1)C(=O)N[C@@H](CCCNC(=N)N)C(=O)O (H-[Cha][Cha]RPMR-OH),,28%,
"LACTOSE, ANHYDROUS",54%,44%,Activity [4]: 44%; Activity [5]: 10%; Activity [6]: 24%; Activity [7]: 43%
